Data reported in article PMC5301048, “Selection and early clinical evaluation of the brain‐penetrant 11β‐hydroxysteroid dehydrogenase type 1 (11β‐HSD1) inhibitor UE2343 (Xanamem™)” (British Journal of Pharmacology, 2017).

Assays:
[1] = Multiple ascending dose study, pharmacokinetics; type: in vivo; details: human; for AUC0–12h / Ae(0–12h) (%) / Ae(0–12h), amount excreted in urine / Oral clearance: mean (CV%); for estimated maximal CSF concentration / estimated mean CSF nadir at steady state (Cmin): calculated from plasma levels and CSF:plasma ratio; for Tmax / Cmax / half-life: plasma, oral
Procedure: A double‐blind, randomized, placebo‐controlled multiple ascending dose study was carried out at Linear Clinical Research Ltd, Nedlands, Australia. Each cohort consisted of eight healthy male subjects. Each subject received UE2343 or placebo twice daily (b.i.d ) (12 hourly) in the fed state for 9 days (Day 1 to Day 9) and once on the morning of Day 10 (19 doses in total). Dose cohorts were 10, 20 and 35 mg. Dose escalation and selection was dependent upon satisfactory review of the blinded safety (up to Day 17 ± 2) and plasma pharmacokinetics (up to Day 12) data from the preceding cohort. Safety, pharmacokinetic and pharmacodynamic assessments were made at pre‐determined time‐points during each part of the study.
Laboratory evaluation of clinical safety parameters was carried out using standard validated methods. Measurement of plasma pharmacodynamic markers [adrenocorticotropic hormone (ACTH), cortisol, 4‐androstenedione, testosterone and dehydroepiandrosterone sulphate (DHEA‐s)] was carried out using commercially available kits. Each method was fully validated prior to analysis. Urinary steroid metabolites were measured according to established methods (Boonen et al., 2013). UE2343 levels in plasma, urine and CSF was determined by LC–MS/MS using fully validated methods.
The data and statistical analysis comply with the recommendations on experimental design and analysis in pharmacology (Curtis et al., 2015). Levels of probability, P < 0.05 were deemed to constitute the threshold for statistical significance. Pharmacokinetic parameters, except Tmax (time of maximum observed drug concentration), are given as mean ± coefficient of variation (CV%). Tmax is given as median ± range. For each of the pharmacodynamic parameters [ACTH, cortisol, adrenal androgens, tetrahydrocortisols (THFs)/tetrahydrocortisone (THE) ratio], the maximum % change from baseline for each subject was subjected to ANOVA. For selected data, an additional covariate factor for the baseline was also included in the ANOVA/analysis of covariance (ANCOVA) model. Associated P‐values <0.05 for each comparison have been presented.

hERG K+ channel = target: T1, hERG K+ channel (Homo sapiens, UniProt Q12809); assay: hERG inhibition, IonWorks Quattro patch clamp; type: cell-based
T1 construct: Chinese hamster lung cell line stably expressing the full length hERG channel; host or cells: Chinese hamster lung cell line
Procedure: Testing was performed by Essen Instruments, Hertfordshire, UK. Compounds were tested for inhibition of the human ether a go‐go related gene (hERG) K+ channel in a Chinese hamster lung cell line stably expressing the full length hERG channel. Single cell ionic currents were measured in the perforated patch clamp configuration at room temperature using an IonWorks Quattro instrument. Eight‐point concentration–response curves were generated using threefold serial dilutions from the maximum final assay concentration. IC50 values were obtained from a four‐parameter logistic fit of the % inhibition data.

[2] = Pharmacokinetics in dog (i.v. and p.o.); type: in vivo; details: for bioavailability: p.o. 5 mg·kg^−1 vs i.v. 1 mg·kg^−1, mean ± SD
Procedure: Pharmacokinetic studies were carried out at Charles River, UK. For both i.v. and p.o. administration, compounds were prepared in 0.9% saline containing 2% DMSO (v^.v^‐1) and 38% PEG400 (v^.v^‐1). Solutions were passed through 0.22 μm filters prior to administration. Three Beagle dogs each received a single i.v. injection of compound 4 at a dose level of 1 mg·kg^−1. Following a washout period of 1 week, each animal received a single p.o. dose of compound 4 at a dose level of 5 mg·kg^−1.
After a washout period of 6 weeks, the same three dogs each received a single i.v. injection of compound 7 at a dose level of 1 mg·kg^−1. Following a washout period of 1 week, each animal received a single p.o. dose of compound 7 at a dose level of 5 mg·kg^−1.
Plasma samples were obtained up to 24 h post dose administration, and the concentration of each test item in plasma was determined using LC–MS/MS. Pharmacokinetic parameters were derived by non‐compartmental analysis using WinNonLin pharmacokinetic software.

T1 sequence (Q12809 whole entry): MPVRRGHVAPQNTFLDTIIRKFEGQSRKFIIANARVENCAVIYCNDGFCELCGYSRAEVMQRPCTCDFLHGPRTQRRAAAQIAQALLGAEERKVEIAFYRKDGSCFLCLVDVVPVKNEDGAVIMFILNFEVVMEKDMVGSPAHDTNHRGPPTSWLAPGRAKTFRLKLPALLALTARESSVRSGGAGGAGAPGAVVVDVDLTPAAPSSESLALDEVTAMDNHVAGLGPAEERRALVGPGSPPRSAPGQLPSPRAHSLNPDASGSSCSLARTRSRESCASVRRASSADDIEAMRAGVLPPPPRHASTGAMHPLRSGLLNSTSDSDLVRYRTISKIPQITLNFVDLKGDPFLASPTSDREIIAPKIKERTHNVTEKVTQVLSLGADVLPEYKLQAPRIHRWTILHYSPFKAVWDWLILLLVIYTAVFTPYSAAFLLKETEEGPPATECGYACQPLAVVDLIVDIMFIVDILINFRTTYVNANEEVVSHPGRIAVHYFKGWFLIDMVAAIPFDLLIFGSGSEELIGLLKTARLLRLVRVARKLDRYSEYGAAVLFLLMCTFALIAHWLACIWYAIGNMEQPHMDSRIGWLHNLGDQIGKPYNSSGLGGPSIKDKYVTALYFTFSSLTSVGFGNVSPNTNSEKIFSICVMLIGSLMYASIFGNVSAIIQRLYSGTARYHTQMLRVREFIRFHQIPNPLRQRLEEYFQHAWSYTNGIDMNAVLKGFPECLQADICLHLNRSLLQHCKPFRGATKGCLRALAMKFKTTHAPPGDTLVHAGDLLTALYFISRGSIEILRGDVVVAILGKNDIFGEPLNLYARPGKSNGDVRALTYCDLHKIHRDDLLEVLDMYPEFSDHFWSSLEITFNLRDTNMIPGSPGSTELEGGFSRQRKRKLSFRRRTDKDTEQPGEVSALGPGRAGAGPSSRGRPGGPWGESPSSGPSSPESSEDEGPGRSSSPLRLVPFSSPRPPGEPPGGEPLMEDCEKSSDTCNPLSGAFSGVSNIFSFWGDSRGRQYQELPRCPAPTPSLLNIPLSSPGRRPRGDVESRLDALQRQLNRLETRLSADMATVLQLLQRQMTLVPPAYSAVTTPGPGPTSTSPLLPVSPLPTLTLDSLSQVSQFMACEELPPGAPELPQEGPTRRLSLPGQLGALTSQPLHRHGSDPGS

O=C(c1csc(-c2cn[nH]c2)c1)N1C2CCC1CC(O)(c1ncccn1)C2 (stereo not drawn) [compound 4]
AUC0–12h ([1]; 10 mg b.i.d, Day 1): 207 (79%) ng^.h·mL^−1
Ae(0–12h) (%) ([1]; 10 mg b.i.d, Day 1): 0.35 (50%)
Ae(0–12h), amount excreted in urine ([1]; 10 mg b.i.d, Day 1): 34.6 (50%) μg
AUC0–12h ([1]; 10 mg b.i.d, Day 10): 1917 (66%) ng^.h·mL^−1
Ae(0–12h) (%) ([1]; 10 mg b.i.d, Day 10): 4.08 (46%)
Ae(0–12h), amount excreted in urine ([1]; 10 mg b.i.d, Day 10): 408 (46%) μg
Oral clearance ([1]; 10 mg b.i.d, Day 10): 7.24 (60%) L·h^−1
estimated maximal CSF concentration ([1]; 10 mg b.i.d): 20 ng/mL
estimated mean CSF nadir at steady state (Cmin) ([1]; 10 mg b.i.d): 13 ng/mL
AUC0–12h ([1]; 20 mg b.i.d, Day 1): 623 (69%) ng^.h·mL^−1
Ae(0–12h) (%) ([1]; 20 mg b.i.d, Day 1): 0.54 (92%)
Ae(0–12h), amount excreted in urine ([1]; 20 mg b.i.d, Day 1): 107 (92%) μg
AUC0–12h ([1]; 20 mg b.i.d, Day 10): 3175 (30%) ng^.h·mL^−1
Ae(0–12h) (%) ([1]; 20 mg b.i.d, Day 10): 3.22 (38%)
Ae(0–12h), amount excreted in urine ([1]; 20 mg b.i.d, Day 10): 644 (38%) μg
Oral clearance ([1]; 20 mg b.i.d, Day 10): 6.85 (33%) L·h^−1
estimated maximal CSF concentration ([1]; 20 mg b.i.d): 34 ng/mL
estimated mean CSF nadir at steady state (Cmin) ([1]; 20 mg b.i.d): 22 ng/mL
AUC0–12h ([1]; 35 mg b.i.d, Day 1): 1843 (33%) ng^.h·mL^−1
Ae(0–12h) (%) ([1]; 35 mg b.i.d, Day 1): 1.03 (46%)
Ae(0–12h), amount excreted in urine ([1]; 35 mg b.i.d, Day 1): 362 (46%) μg
AUC0–12h ([1]; 35 mg b.i.d, Day 10): 7909 (36%) ng^.h·mL^−1
Ae(0–12h) (%) ([1]; 35 mg b.i.d, Day 10): 3.84 (29%)
Ae(0–12h), amount excreted in urine ([1]; 35 mg b.i.d, Day 10): 1345 (29%) μg
Oral clearance ([1]; 35 mg b.i.d, Day 10): 5.02 (43%) L·h^−1
estimated maximal CSF concentration ([1]; 35 mg b.i.d): 81 ng/mL
estimated mean CSF nadir at steady state (Cmin) ([1]; 35 mg b.i.d): 50 ng/mL
day by which steady state was achieved ([1]; 12 hourly dosing): ≤ 5 days
fraction excreted in urine in the dosing interval (% Ae) ([1]; at steady state (Day 10)): approximately 4%
increase in AUC0–12 from first dose to steady state ([1]; highest dose level (35 mg b.i.d), in words): greater than fourfold
Tmax ([1]; single and multiple dosing, range, read-out: plasma Tmax): 3 to 6 h
Cmax ([1]; male, 10 mg, 10 mg b.i.d, Day 1, mean (CV%)): 29.1 ng/mL
Tmax ([1]; male, 10 mg, 10 mg b.i.d, Day 1, median (range), read-out: Tmax): 6 h
Cmax ([1]; male, 10 mg, 10 mg b.i.d, Day 10, mean (CV%)): 207 ng/mL
half-life ([1]; male, 10 mg, 10 mg b.i.d, Day 10, mean (CV%), read-out: t 1/2 (converted)): 13.8 h
Tmax ([1]; male, 10 mg, 10 mg b.i.d, Day 10, median (range), read-out: Tmax): 4 h
Cmax ([1]; male, 20 mg, 20 mg b.i.d, Day 1, mean (CV%)): 89.2 ng/mL
Tmax ([1]; male, 20 mg, 20 mg b.i.d, Day 1, median (range), read-out: Tmax): 4 h
Cmax ([1]; male, 20 mg, 20 mg b.i.d, Day 10, mean (CV%)): 365 ng/mL
half-life ([1]; male, 20 mg, 20 mg b.i.d, Day 10, mean (CV%), read-out: t 1/2 (converted)): 11.2 h
Tmax ([1]; male, 20 mg, 20 mg b.i.d, Day 10, median (range), read-out: Tmax): 3 h
Cmax ([1]; male, 35 mg, 35 mg b.i.d, Day 1, mean (CV%)): 268 ng/mL
Tmax ([1]; male, 35 mg, 35 mg b.i.d, Day 1, median (range), read-out: Tmax): 4 h
Cmax ([1]; male, 35 mg, 35 mg b.i.d, Day 10, mean (CV%)): 892 ng/mL
half-life ([1]; male, 35 mg, 35 mg b.i.d, Day 10, mean (CV%), read-out: t 1/2 (converted)): 9.99 h
Tmax ([1]; male, 35 mg, 35 mg b.i.d, Day 10, median (range), read-out: Tmax): 4 h
half-life ([1]; male, 35 mg, multiple doses 10, 20 and 35 mg every 12 h, range across doses, read-out: terminal t 1/2): 10 to 14 h
Tmax ([1]; male, multiple doses, range across doses, read-out: median time to peak concentration following each dose): 4 to 6 h
IC50 (hERG K+ channel; Chinese hamster lung cells expressing hERG, mean ± SD [n]): > 30 µM
inhibition of the hERG channel (hERG K+ channel; up to a concentration of 30 μM, in words): only marginal inhibition
clearance ([2]; Beagle, plasma, iv, i.v. 1 mg·kg^−1, mean ± SD): 4.68 ± 1.12 mL/min/kg
half-life ([2]; Beagle, plasma, mean ± SD): 2.79 ± 0.84 h
Tmax ([2]; Beagle, plasma, oral, 5 mg·kg^−1): 1 h
bioavailability ([2]; Beagle, plasma, oral): > 100%
Cmax ([2]; Beagle, plasma, po, p.o. 5 mg·kg^−1, mean ± SD): 4590 ± 546 ng/mL
bioavailability ([2]; Beagle, plasma, po): 170 ± 40%
oral exposure relative to compound 7 ([2]; p.o., in words): greater than threefold higher
